Source: patent US8048883B2, “Polymorphic form of imatinib mesylate and a process for its preparation” (Natco Pharma Limited, priority 2004, dated 2011)
“Also recorded” adds a separate entry of the source. Like-named read-outs stand apart in the source and are kept apart here.

Columns and labels:
Assay type in all cases: physicochemical
[1] = Flow properties / suitability for solid dosage forms
[2] = Comparative dissolution of Imatinib mesylate capsules 100 mg (α2 and β-forms)
[3] = Heat stability of α2-crystal form, examined by XRPD; conditions: for Polymorph form detected after heating: XRPD
Source text: Pure α2-crystal polymorph 1 gm prepared by the process described in Example 1 was taken in a boiling test tube and heated gradually in oil bath the substance was examined by XRPD. The results are tabulated below

[4] = Stability of α2 form under accelerated stress conditions in bulk and formulated capsule, XRPD
[5] = Stability of the polymorphic form (metastable or stable); conditions: room temperature and higher temperatures up to 120° C.
Hygroscopicity = assay: Hygroscopicity
[6] = 0 Month at 40 ± 2° C./75 ± 5% RH
[7] = 1 Month at 40 ± 2° C./75 ± 5% RH
[8] = 2 Months at 40 ± 2° C./75 ± 5% RH
[9] = 3 Months at 40 ± 2° C./75 ± 5% RH
[10] = 6 Months at 40 ± 2° C./75 ± 5% RH

Cc1ccc(NC(=O)c2ccc(CN3CCN(C)CC3)cc2)cc1Nc1nccc(-c2cccnc2)n1 [α2 form, N-{5-[4-(4-methylpiperazino-methyl)-benzoylamido]-2-methylphenyl}-4-(3-pyridyl) 2-pyrimidine-amine]
Flow properties of the formulations, α2 form compared with β-form ([1]; same excipient composition): comparable | Flow properties ([1]; suitability for pharmaceutical solid dosage forms): Found to be well suited for | Dissolution of the capsule formulation compared with the β-form formulation [2]: better dissolution characteristics | Dissolution in capsule formulation ([2]; during 30 min): Dissolution of more than 95% | Dissolution of the capsule formulation compared with the β-form formulation ([2]; listed as α2-form): comparable and even better | Polymorph form detected after heating ([3]; 110° C., 2 hours): α2 form | Polymorph form detected after heating ([3]; 110° C., 4 hours): α2 form | Heat stability ([3]; 120° C. for 6 hours): non-metastable and stable; also recorded: fairly stable to heat | Polymorph form detected after heating ([3]; 120° C., 2 hours): α2 form | Polymorph form detected after heating ([3]; 120° C., 4 hours): α2 form | Polymorph form detected after heating ([3]; 120° C., 6 hours): α2 form | Polymorph content of bulk imatinib mesylate, polymorph form detected [4, 6]: α2 form | Polymorph content of imatinib mesylate in formulated capsule, polymorph form detected [4, 6]: α2 form | Polymorph content of bulk imatinib mesylate, polymorph form detected [4, 7]: α2 form | Polymorph content of imatinib mesylate in formulated capsule, polymorph form detected [4, 7]: α2 form | Polymorph content of bulk imatinib mesylate, polymorph form detected [4, 8]: α2 form | Polymorph content of imatinib mesylate in formulated capsule, polymorph form detected [4, 8]: α2 form | Polymorph content of bulk imatinib mesylate, polymorph form detected [4, 9]: α2 form | Polymorph content of imatinib mesylate in formulated capsule, polymorph form detected [4, 9]: α2 form | Polymorph content of bulk imatinib mesylate, polymorph form detected [4, 10]: α2 form | Polymorph content of imatinib mesylate in formulated capsule, polymorph form detected [4, 10]: α2 form | Conversion to β-polymorphic form in capsule ([4]; about 40° C. and about 75% relative humidity for 6 months): does not show any significant conversion | Conversion over time to form β ([4]; bulk form or dosage form, about 40° and about 75% relative humidity, at least about 6 months): does not substantially convert | Stability at normal and accelerated stress conditions ([4]; in bulk and formulated capsule form): stable | Stability ([5]; listed as α2): stable | Stability ([5]; listed as α2-form): stable | Hygroscopicity (Hygroscopicity): Non-hygroscopic
